Reference: patent US20240269304A1, “BCL-XL INHIBITOR ANTIBODY-DRUG CONJUGATES AND METHODS OF USE THEREOF” (Novartis AG, priority 2020, published 2024)
Where two headings read alike, the source gives them in different places.

Key:
[1] = test system: HPB-ALL (T-ALL); test: CellTiter-Glo viability 72 h, single agent or 1/1 combination with vincristine, ABT-199 or Compound A2, HPB-ALL (Example 9); assay type: cell-based; conditions: Homo sapiens, HPBALL, single agent or 1/1 combination as labelled
Protocol: (§1) Cell lines were cultured in the media described above at 37° C. in a humidified atmosphere containing 5% CO2. Cells were seeded in 96 well clear bottom plates (96 well clear-bottom, white, Corning reference 3903) and exposed to the payloads or ADCs at single agents or in 1/1 combinations with vincristine, ABT-199 or compound A2 for 72 h (serially diluted; 9 concentrations each, triplicates). Effects of payloads or ADCs on cell viability were assessed after 3 days of incubation at 37° C./5% CO2 by quantification of cellular ATP levels using CellTiter-Glo reagent (Promega Ref: G7571) at 75 μL reagent/well. All the conditions were tested in triplicates. Luminescence was quantified on a multipurpose plate reader. IC50s were calculated using standard four-parametric curve fitting. […] Each experiment was performed at least twice, with results being reproducible.

[2] = test system: ALL-SILL (T-ALL); test: CellTiter-Glo viability 72 h, single agent or 1/1 combination, ALL-SIL (Example 9); assay type: cell-based; conditions: single agent or 1/1 combination as labelled
Protocol: Cell lines were cultured in the media described above at 37° C. in a humidified atmosphere containing 5% CO2. […] Effects of payloads or ADCs on cell viability were assessed after 3 days of incubation at 37° C./5% CO2 by quantification of cellular ATP levels using CellTiter-Glo reagent (Promega Ref: G7571) at 75 μL reagent/well. All the conditions were tested in triplicates. Luminescence was quantified on a multipurpose plate reader. IC50s were calculated using standard four-parametric curve fitting.

[3] = test system: LOUCY (T-ALL); test: CellTiter-Glo viability 72 h, single agent or 1/1 combination, LOUCY (Example 9); assay type: cell-based; conditions: single agent or 1/1 combination as labelled
Protocol: as §1

[4] = test system: SUDHL8 (DLBCL); test: CellTiter-Glo viability 72 h, single agent or 1/1 combination, SUDHL8 (Example 9); assay type: cell-based; conditions: Homo sapiens, SU-DHL-8, single agent or 1/1 combination as labelled
Protocol: as §1

[5] = test system: MM1S (MM); test: CellTiter-Glo viability 72 h, single agent or 1/1 combination, MM1S (Example 9); assay type: cell-based; conditions: Homo sapiens, MM1.S, single agent or 1/1 combination as labelled
Protocol: as §1

[6] = test system: H1650 cells; test: CellTiterGlo (CTG) cell viability, 3D, 120 h, H1650 (Example 8); assay type: cell-based, human; conditions: Homo sapiens, NCI-H1650, H1650 3D
[7] = test system: corl279; test: In vitro ADC activity with combination partners (Venetoclax, Topotecan), CellTiter-Glo 5 days, corl279 (Example 13); assay type: cell-based; conditions: single agent
Protocol: (§2) Antibody drug conjugates (ADCs) targeting IgG, B7H3, CD56, DLK1, DLL3, EpCAM, and SEZ6 were tested against cancer cell lines obtained from ATCC (American Type Culture Collection) or from other commercial cell line vendors (cor1279, ncih1436, ncih146, ncih211, ncih524). The cells were cultured in media that is optimal for their growth at 5% CO2, 37° C. in a tissue culture incubator. Prior to seeding for the proliferation assay, the cells were split at least 2 days before the assay to ensure optimal growth density. On the day of seeding, cells were lifted off tissue culture flasks using 0.25% trypsin. Cell viability and cell density were determined using a cell counter (Vi-Cell XR Cell Viability Analyzer, Beckman Coulter). Cells with higher than 85% viability were seeded in white clear bottom 384-well plates (Greiner cat #781098) at a density of 1000 cells per well in 50 μL of standard growth media. Plates were incubated at 37° C. overnight in a tissue culture incubator.
(§3) The ADCs were prepared in standard phosphate buffered solution to desired concentrations. A series of 10 dilutions were made for each ADC. The prepared drug treatments were then added to the cells resulting in final concentrations of 300 nM to 0.015 nM. Combination partners (Venetoclax and Topotecan) were added at fixed concentrations. Acoustic transfer devices (Echo525, Echo550, Beckman Coulter) were used to add the ADCs or combination partners to the cells. Each treatment was tested in triplicate assay plates. Plates were incubated at 37° C. overnight or for 5 days in a tissue culture incubator. The ability of the ADCs to inhibit cell proliferation and survival was assessed using the Promega CellTiter-Glo® proliferation assay. Plates were incubated at room temperature for 20 minutes to stabilize luminescent signals prior to reading using a multimode plate reader (Pherastar, BMG). Luminescent counts of untreated cells were taken the day after seeding (Day 0 readings), and after 5 days of treatment (Day 5 readings). The Day 5 readings of the untreated cells were compared to the Day 0 readings. Assays with at least one cell doubling during the incubation period were considered valid. To evaluate the effect of the drug treatments, luminescent counts from wells containing untreated cells (100% viability) were used to normalize treated samples. The concentrations of treatment required to inhibit 50% of cell growth or survival ([…]) were calculated using a four parameter logistic regression equation.

[8] = test system: ncih1436; test: In vitro ADC activity with combination partners, CellTiter-Glo 5 days, ncih1436 (Example 13); assay type: cell-based; conditions: single agent
Protocol: as §2, §3

[9] = test system: ncih146; test: In vitro ADC activity with combination partners, CellTiter-Glo 5 days, ncih146 (Example 13); assay type: cell-based; conditions: single agent
Protocol: as §2, §3

[10] = test system: ncih211; test: In vitro ADC activity with combination partners, CellTiter-Glo 5 days, ncih211 (Example 13); assay type: cell-based; conditions: single agent
Protocol: as §2, §3

[11] = test system: ncih524; test: In vitro ADC activity with combination partners, CellTiter-Glo 5 days, ncih524 (Example 13); assay type: cell-based; conditions: single agent
Protocol: as §2, §3

[12] = mean, read-out: HPB-ALL (T-ALL) IC50 mean
[13] = n1, read-out: HPB-ALL (T-ALL) IC50 n1
[14] = n2, read-out: HPB-ALL (T-ALL) IC50 n2
[15] = mean, read-out: ALL-SILL (T-ALL) IC50 mean
[16] = n1, read-out: ALL-SILL (T-ALL) IC50 n1
[17] = n2, read-out: ALL-SILL (T-ALL) IC50 n2
[18] = mean, read-out: LOUCY (T-ALL) IC50 mean
[19] = n1, read-out: LOUCY (T-ALL) IC50 n1
[20] = n2, read-out: LOUCY (T-ALL) IC50 n2
[21] = mean, read-out: SUDHL8 (DLBCL) IC50 mean
[22] = n1, read-out: SUDHL8 (DLBCL) IC50 n1
[23] = n2, read-out: SUDHL8 (DLBCL) IC50 n2
[24] = mean, read-out: MM1S (MM) IC50 mean
[25] = n1, read-out: MM1S (MM) IC50 n1
[26] = n2, read-out: MM1S (MM) IC50 n2

SMILES | IC50 [1, 12] | IC50 [1, 13] | IC50 [1, 14] | IC50 [2, 15] | IC50 [2, 16] | IC50 [2, 17] | IC50 [3, 18] | IC50 [3, 19] | IC50 [3, 20] | IC50 [4, 21] | IC50 [4, 22] | IC50 [4, 23] | IC50 [5, 24] | IC50 [5, 25] | IC50 [5, 26] | GI Amax corl279 [7] | GI Amax ncih1436 [8] | GI Amax ncih146 [9] | GI Amax ncih211 [10] | GI Amax ncih524 [11] | other results
CC1(C)CCC(CN2CCN(c3ccc(C(=O)NS(=O)(=O)c4ccc(NCC5CCOCC5)c([N+](=O)[O-])c4)c(Oc4cnc5[nH]ccc5c4)c3)CC2)=C(c2ccc(Cl)cc2)C1 [ABT-199, reference compound] | 9060 nM | 8920 nM | 9210 nM | 224 nM | 234 nM | 213 nM | 24.5 nM | 19 nM | 30 nM | 6140 nM | 4820 nM | 7460 nM | 4540 nM | 4470 nM | 4600 nM |  |  |  |  |  | 
Cc1c(Nc2nc3ccccc3s2)nnc2c1CCCN2c1ccc(-c2cnn(CC34CC5(C)CC(C)(C3)CC(OCCNCCCO)(C5)C4)c2C)c(C(=O)O)n1 [P25, 6-[3-(1,3-benzothiazol-2-ylamino)-4-methyl-6,7-dihydro-5H-pyrido[2,3-c]pyridazin-8-yl]-3-[1-[[3-[2-(3-hydroxypropylamino)ethoxy]-5,7-dimethyl-1-adamantyl]methyl]-5-methyl-pyrazol-4-yl]pyridine-2-carboxylic acid] | 4.6 nM | 4.2 nM | 5 nM | 1.75 nM | 2.1 nM | 1.39 nM | 1.03 nM | 0.8 nM | 1.26 nM | 7.78 nM | 5.92 nM | 9.64 nM | 74.8 nM | 56.7 nM | 92.9 nM |  |  |  |  |  | IC50 ([6]; experiment n1, read-out: H1650 3D CTG IC50 n1): 2.8 nM; IC50 ([6]; experiment n2, read-out: H1650 3D CTG IC50 n2): 3 nM; IC50 ([6]; mean of n1 and n2, read-out: H1650 3D CTG IC50 Mean of n1 and n2): 2.9 nM
Cc1c(N(C(=O)c2cc(-c3cc(Cl)ccc3C(=O)N3Cc4ccccc4C[C@H]3CN3CCOCC3)n(C)c2C)c2ccc(O)cc2)cc(C#N)n1C [Compound A2, reference compound] | 6080 nM | 5850 nM | 6300 nM | 124 nM | 128 nM | 121 nM | 35.5 nM | 30 nM | 41 nM | 5740 nM | 6670 nM | 4820 nM | 7360 nM | 7360 nM | 7360 nM |  |  |  |  |  | 
CC[C@@]1(O)C(=O)OCc2c1cc1n(c2=O)Cc2cc3c(CN(C)C)c(O)ccc3nc2-1 [Topotecan, topotecan] |  |  |  |  |  |  |  |  |  |  |  |  |  |  |  | −95.95 | −23.22 | −91.77 | −89.36 | −83.85 | GI50 ([7]; Homo sapiens, COR-L279, 120 h): 0.0152 µM; GI50 ([8]; Homo sapiens, NCI-H1436, 120 h): 0.515 µM; GI50 ([9]; Homo sapiens, NCI-H146, 120 h): 0.00304 µM; GI50 ([10]; Homo sapiens, NCI-H211, 120 h): 0.0125 µM; GI50 ([11]; Homo sapiens, NCI-H524, 120 h): 0.00827 µM
CC[C@]1(O)C[C@H]2CN(CCc3c([nH]c4ccccc34)[C@@](C(=O)OC)(c3cc4c(cc3OC)N(C=O)[C@H]3[C@@](O)(C(=O)OC)[C@H](OC(C)=O)[C@]5(CC)C=CCN6CC[C@]43[C@@H]65)C2)C1 [Vincristine, vincristine] | 0.705 nM | 0.68 nM | 0.73 nM | 0.089 nM | 0.094 nM | 0.083 nM | 0.73 nM | 0.96 nM | 0.5 nM |  |  |  |  |  |  |  |  |  |  |  | 
CC1(C)CCC(CN2CCN(c3ccc(C(=O)NS(=O)(=O)c4ccc(NCC5CCOCC5)c([N+](=O)[O-])c4)c(Oc4cnc5[nH]ccc5c4)c3)CC2)=C(c2ccc(Cl)cc2)C1 [Venetoclax, venetoclax] |  |  |  |  |  |  |  |  |  |  |  |  |  |  |  | 98.71 | 13 | −16.83 | 30.85 | 105.21 | GI50 [7]: > 10 µM; GI50 [8]: 4.92 µM; GI50 [9]: 0.789 µM; GI50 [10]: 3.92 µM; GI50 [11]: > 10 µM
